Reference: patent US20260041093A1, “Ionic Derivatives Of Aromatic Carboxylic Acid For Use As Plant Stimulants, Method For Stimulating Plants And Use Of These Derivatives For Manufacturing Compositions For Stimulating Plants” (FUNDACJA UNIWERSYTETU IM. ADAMA MICKIEWICZA W POZNANIU, priority 2022, published 2026)
Read-outs that look alike come from different tables or passages of the source.

Experiments:
[1] = test system: Pseudomonas syringae pv. Tomato (Pst); conditions: watered twice, Pst 10^5, 2 weeks after infection
Description: Tobacco plants at the stage of 3 developed leaves were watered twice, at a weekly interval, with a solution of test substances 1-11 at concentrations of 10, 40, 80 mg/L. The control was tobacco plants watered with water only. One week after the second treatment, a suspension of Pst bacteria at a concentration of 10^5 was spotted into the leaves using an insulin syringe (without a needle). The suspension was prepared from a two-day culture of Pst on solid medium. Protection against biotic stress was evaluated by the proliferation of bacteria in the leaves at the insertion site and the formation of a necrotic spot, compared to the control.
We proceeded as in Example 30, with the effectiveness of protection against biotic stress tested against bacterial cell concentrations raised to about 10^6.

[2] = test system: powdery mildew fungus; type: in vivo, tomato; conditions: 80 mg/L, watered twice; 2 weeks after infection
Description: Tomato plants, at the stage of the first pair of developed true leaves, were watered twice with a solution of substance 1-32 at a concentration of 80 mg/L, at a weekly interval. The control was tomato plants watered only with water. […] The suspension was prepared from culture on solid medium. Protection against biotic stress was evaluated by comparing the area of leaves affected by infection.

[3] = test system: Brome Mosaic Virus (BMV); test: Protection of barley against Brome Mosaic Virus infection by watering (Examples 28 and 29); type: in vivo; conditions: 80 mg/L, watered twice; 2 weeks after infection
[4] = test system: powdery mildew fungus; test: Protection of tomato against powdery mildew by spraying (Example 35); type: in vivo, Lycopersicon Esculentum Mill tomato; conditions: 40 mg/l, sprayed twice; 2 weeks after pathogen inoculation
Description: […] The control was tomato plants watered only with water. […] The suspension was prepared from culture on solid medium. Protection against biotic stress was evaluated by comparing the area of leaves affected by infection.
Proceeded in the way as described in Example 34, with the difference that plants were sprayed and not watered.

[5] = test system: TMV; test: Protection of tobacco against TMV, single spray, comparison with BION (Example 26); type: in vivo, Nicotiana tabacum cv. Xanthi; conditions: sprayed once, infected a week later
Description: Tobacco plants (Nicotiana tabacum) cv. Xanthi at the stage of three developed leaves were sprayed once with solutions of substance 1-5 or BION™ at concentrations of 10, 40, 80 mg/L. A week later, they were mechanically infected with TMV by rubbing the leaves with a square soaked in a suspension of purified virus, with a concentration of about 2 μg/ml. The level of protection against the effects of biotic stress was evaluated by comparing the number of necrotic spots caused by TMV on the leaves of plants treated with substances 1-5 and BION™ and control plants.
A reduction in the number of necrotic spots indicates protection from the effects of the biotic agent on the plant.

[6] = test system: TMV; test: Protection of tobacco against TMV infected 3 weeks after the last treatment (Example 27); type: in vivo; conditions: infected with TMV 3 weeks after the last treatment
Description: They proceeded as in Example 24, using substances 1-4 at concentrations of 10, 40 and 80 mg/L for treatment, with treated and control plants divided into 3 batches and their leaves infected with the virus 1, 2 and 3 weeks after the last treatment, respectively. […] A similar effect occurred with spraying.

## CC(=O)Oc1c(Cl)cccc1C(=O)[O-].C[N+](C)(C)CCO [choline 2-acetoxy-3-chlorobenzoate]
[1]; 10 mg/L
  % reduction in necrotic spots compared to control: >10%
[1]; 40 mg/L
  % reduction in necrotic spots compared to control: 28%
[1]; 80 mg/L
  % reduction in necrotic spots compared to control: 35%
[2]
  % reduction in necrotic spots compared to control: 45%

## 2-bromoethyl(trimethyl)ammonium 3-chlorosalicylate
[2]
  % reduction in necrotic spots compared to control: 54%
[3]
  % reduction in necrotic spots compared to control: 95%

## C[N+](C)(C)CCO.O=C([O-])c1c(I)ccc(Cl)c1O [choline 3-chloro-6-iodosalicylate]
[4]
  Reduction in necrotic spots (white patches) compared to control: 47%

## C[N+](C)(C)CCO.O=C([O-])c1cc(Br)ccc1O [choline 5-bromosalicylate]
[2]
  % reduction in necrotic spots compared to control: 79%
[3]
  % reduction in necrotic spots compared to control: 69%

## C[N+](C)(C)CCO.O=C([O-])c1cc(I)ccc1O [choline 5-iodosalicylate]
[2]
  % reduction in necrotic spots compared to control: 65%
[3]
  % reduction in necrotic spots compared to control: 35%

## 2-iodoethyl(trimethyl)ammonium 3-chlorosalicylate
[2]
  % reduction in necrotic spots compared to control: 47%
[3]
  % reduction in necrotic spots compared to control: 64%

## C[N+](C)(C)CCO.O=C([O-])c1cc(F)ccc1O [choline 5-fluorosalicylate]
[2]
  % reduction in necrotic spots compared to control: 54%
[3]
  % reduction in necrotic spots compared to control: 88%

## COc1c(Cl)cccc1C(=O)[O-].C[N+](C)(C)CCO [choline 2-methoxy-3-chlorobenzoate]
[1]; 10 mg/L
  % reduction in necrotic spots compared to control: >10%
[1]; 40 mg/L
  % reduction in necrotic spots compared to control: 25%
[1]; 80 mg/L
  % reduction in necrotic spots compared to control: 39%
[2]
  % reduction in necrotic spots compared to control: 49%

## 2-hydroxyethyl(tributyl)ammonium 3-chlorosalicylate
[5]; 10 mg/L
  % reduction in necrotic spots compared to control: 26%
[5]; 40 mg/L
  % reduction in necrotic spots compared to control: 26%
[5]; 80 mg/L
  % reduction in necrotic spots compared to control: 30%
[2]
  % reduction in necrotic spots compared to control: 66%

## C[N+](C)(C)CCO.O=C([O-])c1c(Br)ccc(Cl)c1O [choline 3-chloro-6-bromosalicylate]
[1]; 10 mg/L
  % reduction in necrotic spots compared to control: 24%
[1]; 40 mg/L
  % reduction in necrotic spots compared to control: 29%
[1]; 80 mg/L
  % reduction in necrotic spots compared to control: 40%
[4]
  Reduction in necrotic spots (white patches) compared to control: 49%

## C[N+](C)(C)CCO.O=C([O-])c1cccc(Br)c1O [choline 3-bromosalicylate]
[2]
  % reduction in necrotic spots compared to control: 72%
[3]
  % reduction in necrotic spots compared to control: 21%

## 2-hydroxyethyl(tridecyl)ammonium 3-chlorosalicylate
[5]; 10 mg/L
  % reduction in necrotic spots compared to control: 25%
[5]; 40 mg/L
  % reduction in necrotic spots compared to control: 46%
[5]; 80 mg/L
  % reduction in necrotic spots compared to control: 65%
[2]
  % reduction in necrotic spots compared to control: 64%

## 2-hydroxyethyl(triethyl)ammonium 3-chlorosalicylate
[5]; 10 mg/L
  % reduction in necrotic spots compared to control: 15%
[5]; 40 mg/L
  % reduction in necrotic spots compared to control: 26%
[5]; 80 mg/L
  % reduction in necrotic spots compared to control: 37%
[2]
  % reduction in necrotic spots compared to control: 58%

## C[N+](C)(C)CCO.O=C([O-])c1cc(F)cc(F)c1O
[2]
  % reduction in necrotic spots compared to control: 70%
[3]
  % reduction in necrotic spots compared to control: 27%

## 2-methoxyethyl(trimethyl)ammonium 3-chlorosalicylate
[2]
  % reduction in necrotic spots compared to control: 67%
[6]; 10 mg/L
  % reduction in necrotic spots compared to control: 15%
[6]; 40 mg/L
  % reduction in necrotic spots compared to control: 26%
[6]; 80 mg/L
  % reduction in necrotic spots compared to control: 37%

## 2-ethoxyethyl(trimethyl)ammonium 3-chlorosalicylate
[2]
  % reduction in necrotic spots compared to control: 55%
[6]; 10 mg/L
  % reduction in necrotic spots compared to control: 26%
[6]; 40 mg/L
  % reduction in necrotic spots compared to control: 26%
[6]; 80 mg/L
  % reduction in necrotic spots compared to control: 30%

## C[N+](C)(C)CCO.O=C([O-])c1c(F)ccc(Cl)c1O [choline 3-chloro-6-fluorosalicylate]
[1]; 10 mg/L
  % reduction in necrotic spots compared to control: 19%
[1]; 40 mg/L
  % reduction in necrotic spots compared to control: 28%
[1]; 80 mg/L
  % reduction in necrotic spots compared to control: 47%
[4]
  Reduction in necrotic spots (white patches) compared to control: 45%

## C[N+](C)(C)CCO.O=C([O-])c1cccc(F)c1O [choline 3-fluorosalicylate]
[2]
  % reduction in necrotic spots compared to control: 52%
[3]
  % reduction in necrotic spots compared to control: 56%

## CCOc1c(Cl)cccc1C(=O)[O-].C[N+](C)(C)CCO [choline 2-ethoxy-3-chlorobenzoate]
[1]; 10 mg/L
  % reduction in necrotic spots compared to control: 24%
[1]; 40 mg/L
  % reduction in necrotic spots compared to control: 33%
[1]; 80 mg/L
  % reduction in necrotic spots compared to control: 39%
[2]
  % reduction in necrotic spots compared to control: 43%

## CC(=O)Oc1ccccc1C(=O)[O-].C[N+](C)(C)CCO [choline 2-acetoxybenzoate]
[1]; 10 mg/L
  % reduction in necrotic spots compared to control: 25%
[1]; 40 mg/L
  % reduction in necrotic spots compared to control: 29%
[1]; 80 mg/L
  % reduction in necrotic spots compared to control: 69%
[2]
  % reduction in necrotic spots compared to control: 52%

## CCOc1ccccc1C(=O)[O-].C[N+](C)(C)CCO [choline 2-ethoxybenzoate]
[1]; 10 mg/L
  % reduction in necrotic spots compared to control: 56%
[1]; 40 mg/L
  % reduction in necrotic spots compared to control: 60%
[1]; 80 mg/L
  % reduction in necrotic spots compared to control: 82%
[2]
  % reduction in necrotic spots compared to control: 43%

## C[N+](C)(C)CCO.O=C([O-])c1cc(Br)cc(Br)c1O
[2]
  % reduction in necrotic spots compared to control: 72%
[3]
  % reduction in necrotic spots compared to control: 38%

## COc1ccccc1C(=O)[O-].C[N+](C)(C)CCO [choline 2-methoxybenzoate]
[1]; 10 mg/L
  % reduction in necrotic spots compared to control: 54%
[1]; 40 mg/L
  % reduction in necrotic spots compared to control: 68%
[1]; 80 mg/L
  % reduction in necrotic spots compared to control: 67%
[2]
  % reduction in necrotic spots compared to control: 44%

## 2-hydroxyethyl(tridodecyl)ammonium 3-chlorosalicylate
[5]; 10 mg/L
  % reduction in necrotic spots compared to control: 59%
[5]; 40 mg/L
  % reduction in necrotic spots compared to control: 64%
[5]; 80 mg/L
  % reduction in necrotic spots compared to control: 89%
[2]
  % reduction in necrotic spots compared to control: 47%

## C[N+](C)(C)CCO.O=C([O-])c1cccc(I)c1O [choline 3-iodosalicylate]
[2]
  % reduction in necrotic spots compared to control: 69%
[3]
  % reduction in necrotic spots compared to control: 77%

## C[N+](C)(C)CCO.O=C([O-])c1cc(I)cc(I)c1O
[2]
  % reduction in necrotic spots compared to control: 78%
[3]
  % reduction in necrotic spots compared to control: 46%

## 2-fluoroethyl(trimethyl)ammonium 3-chlorosalicylate
[2]
  % reduction in necrotic spots compared to control: 36%
[3]
  % reduction in necrotic spots compared to control: 56%

## ethyl(trimethyl)ammonium 3-chlorosalicylate
[2]
  % reduction in necrotic spots compared to control: 63%
[6]; 10 mg/L
  % reduction in necrotic spots compared to control: 25%
[6]; 40 mg/L
  % reduction in necrotic spots compared to control: 46%
[6]; 80 mg/L
  % reduction in necrotic spots compared to control: 65%

## 2-chloroethyl(trimethyl)ammonium 3-chlorosalicylate
[2]
  % reduction in necrotic spots compared to control: 57%
[3]
  % reduction in necrotic spots compared to control: 36%
